Each molecule was assayed against Histamine H3 receptor (Rattus norvegicus) (UniProt Q9QYN8) (assay: Inhibition of the specific binding of [3H](R)-alpha-methylhistamine ([3H]RMHA) to Histamine H3 receptor in rat brain membranes at 10e-8 M).
Chain of Histamine H3 receptor (Rattus norvegicus) (Q9QYN8 whole entry, looked up): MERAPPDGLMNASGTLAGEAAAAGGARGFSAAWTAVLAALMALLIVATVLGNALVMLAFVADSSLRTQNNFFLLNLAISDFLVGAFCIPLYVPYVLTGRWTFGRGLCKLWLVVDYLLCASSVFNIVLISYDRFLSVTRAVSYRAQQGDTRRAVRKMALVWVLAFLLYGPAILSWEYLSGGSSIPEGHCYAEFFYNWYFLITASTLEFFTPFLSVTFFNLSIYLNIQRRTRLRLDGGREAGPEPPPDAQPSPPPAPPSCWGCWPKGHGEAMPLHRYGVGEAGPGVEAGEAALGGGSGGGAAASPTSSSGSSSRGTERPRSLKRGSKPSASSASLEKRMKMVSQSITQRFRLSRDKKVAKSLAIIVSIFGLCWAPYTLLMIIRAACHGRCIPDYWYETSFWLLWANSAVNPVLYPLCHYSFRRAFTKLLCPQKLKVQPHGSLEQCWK

inhibition [%]	SMILES
4.3	OC/C=C\c1ccccc1
10	C/C=C/CO
3.7	C/C=C\CO
33.5	OC/C=C/c1ccccc1

SMILES	inhibition [%]
O=C(O)C1C[C@@H]1c1c[nH]cn1 (single isomer, unassigned)	11.6
